Laboratory results reported in ChEMBL document CHEMBL6096706, “Discovery of WDR5-MLL1 and HDAC Dual-Target Inhibitors for the Treatment of Acute Myeloid Leukemia” (J Med Chem, 2025).

Legend:
MV4-11 [1] = test: Induction of apoptosis in human MV4-11 cells assessed as viable cells at 200 nM incubated for 72 hrs in presence of vorinostat by Annexin V/PI staining based flow cytometry analysis (reference value: 96.68%); format: functional; conditions: read-out: Activity
MV4-11 [2] = test: Antiproliferative activity against human MV4-11 cells assessed as growth inhibition at 0.2 uM measured after 72 hrs in presence of 0.05 uM of vorinostat by CellTiterGlo assay; format: functional; conditions: read-out: GI
MV4-11 [3] = test: Antiproliferative activity against human MV4-11 cells assessed as growth inhibition at 0.1 uM measured after 72 hrs in presence of 0.2 uM of vorinostat by CellTiterGlo assay; format: functional; conditions: read-out: GI
MV4-11 [4] = test: Antiproliferative activity against human MV4-11 cells assessed as growth inhibition at 0.2 uM measured after 72 hrs in presence of 0.1 uM of vorinostat by CellTiterGlo assay; format: functional; conditions: read-out: GI
MV4-11 [5] = test: Antiproliferative activity against human MV4-11 cells assessed as growth inhibition at 2 uM measured after 72 hrs in presence of 0.1 uM of vorinostat by CellTiterGlo assay; format: functional; conditions: read-out: GI
MV4-11 [6] = test: Induction of apoptosis in human MV4-11 cells assessed as necrotic cells at 400 nM incubated for 72 hrs in presence of vorinostat by Annexin V/PI staining based flow cytometry analysis (reference value: 2.61%); format: functional
MV4-11 [7] = test: Antiproliferative activity against human MV4-11 cells assessed as growth inhibition at 0.05 uM measured after 72 hrs in presence of 1 uM of vorinostat by CellTiterGlo assay; format: functional; conditions: read-out: GI
MV4-11 [8] = test: Induction of apoptosis in human MV4-11 cells assessed as necrotic cells at 50 nmol/L incubated for 72 hrs by Annexin V/PI staining based flow cytometry analysis (reference value: 0.46%); format: functional
[9] = Toxicity in mouse implanted in human MV4-11 cells assessed as liver damage at 10 to 30 mg/kg, ip administered daily for 17 days by H and E staining based analysis; format: organism-based; conditions: in vivo, 408 h, dose 10-30 mg/kg, time 17 day
MV4-11 [10] = test: Induction of apoptosis in human MV4-11 cells assessed as viable cells at 50 nmol/L incubated for 72 hrs by Annexin V/PI staining based flow cytometry analysis (reference value: 90.23%); format: functional; conditions: read-out: Activity
MV4-11 [11] = test: Induction of apoptosis in human MV4-11 cells assessed as late apoptotic cells at 100 nmol/L incubated for 72 hrs by Annexin V/PI staining based flow cytometry analysis (reference value: 5.14%); format: functional
[12] = Toxicity in mouse implanted in human MV4-11 cells assessed as body weight loss at 10 to 30 mg/kg, ip administered daily for 17 days; format: organism-based; conditions: in vivo, 408 h, dose 10-30 mg/kg, time 17 day

SMILES | viability at 0.2 µM (MV4-11 [1]) | inhibition of growth at 0.2 µM (MV4-11 [2]) | inhibition of growth at 0.1 µM (MV4-11 [3]) | inhibition of growth at 0.2 µM (MV4-11 [4]) | inhibition of growth at 2 µM (MV4-11 [5]) | Activity (MV4-11 [6]) | inhibition of growth at 0.05 µM (MV4-11 [7]) | Activity (MV4-11 [8]) | Activity [9] | viability at 0.05 µM (MV4-11 [10]) | Activity (MV4-11 [11]) | Activity [12]
Cc1c(F)c(N)cc(C(=O)Nc2cc(-c3ccc(C(=O)N4CCOCC4)cc3)ccc2N2CCN(C)CC2)c1Cl | 57% | 36.8% | 49.3% | 45% | 68.6% | 3.05% | 86.7% | – | – | – | – | –
Cc1c(F)c(N)cc(C(=O)Nc2cc(-c3ccc(C(=O)NCc4ccc(/C=C/C(=O)NO)cc4)cc3)ccc2N2CCN(C)CC2)c1Cl | – | – | – | – | – | – | – | 2.44% | Non-toxic | 75.7% | 7.14% | Non-toxic
